Data from patent publication USRE46943E1, “Radioprotector compounds and methods” (PETER MACCALLUM CANCER INSTITUTE, priority 2010, dated 2018).

Columns and labels:
[1] = tested on: transformed human keratinocyte cell line (FEP 1811); test: Clonogenic survival cell culture assay for radioprotective activity (12 Gy 137Cs gamma irradiation); type: cell-based; conditions: 12 Gy; for DMF10 (dose modification factor at a concentration of 10 microM of radioprotector): 10 microM radioprotector; for DMFm (dose modification factor at maximum protection): DMF=Dp/Dc at survival level Sm; for PF (protection factor = Sm/So): survival at maximum protection vs irradiation only
Outline: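 Survival after irradiation gave protection factor PF = Sm/So (maximum-protection survival over irradiation-only survival). DMF = Dp/Dc is the ratio of doses giving survival Sm with and without radioprotector. DMF10 uses survival at 10 microM radioprotector in place of Sm.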

[2] = tested on: transformed human keratinocyte cell line (FEP 1811); test: Clonogenic survival cell culture assay for cytotoxicity; type: cell-based; conditions: Homo sapiens, Keratinocyte, light or radiation study; un-irradiated keratinocytes, one hour drug exposure, colonies counted after eight days; read-out: C50 (concentration of radioprotector that results in 50% clonogenic survival)
Outline: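 Mid-log monolayers exposed to test drug for 1 h, then pronase-dispersed and plated; colonies counted after 8 days. For […], irradiation at 0.6 Gy per minute began 30 min after drug addition, with total drug exposure held at 60 min before plating for clonogenic survival.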

SMILES	melting point	DMF10 (dose modification factor at a concentration of 10 microM of radioprotector) [1]	DMFm (dose modification factor at maximum protection) [1]	PF (protection factor = Sm/So) [1]	IC50 [2] [µM]
CN1CCN(c2ccc3nc(-c4ccc5nc(-c6ccc[nH]c6=O)[nH]c5c4)[nH]c3c2)CC1 [Example 18, 3-(5′-(5″-(4′″-Methylpiperazin-1′″-yl)benzimidazol-2″-yl)benzimidazol-2′-yl)pyridin-2(1H)-one]	244 to 248 °C	1.00	1.01	1.1	66.8
Cc1ccnc(-c2nc3ccc(-c4nc5ccc(N6CCOCC6)cc5[nH]4)cc3[nH]2)c1 [Example 21, 2-(5′-(5″-Morpholinobenzimidazol-2″-yl)benzimidazol-2′-yl)-4-methylpyridine]	214 to 230 °C	1.47	1.77	18.2	213
COc1cc2nc(-c3ccccn3)[nH]c2cc1-c1nc2ccc(N3CCN(C)CC3)cc2[nH]1 [Example 32, 2-(5′-methoxy-6′-(5″-(4′″-methylpiperazin-1′″-yl)benzimidazol-2″-yl)benzimidazol-2′-yl)pyridine]	190 to 195 °C	1.32	1.56	23.6	112
CN1CCN(c2ccc3nc(-c4ccc5nc(-c6cc(C(F)(F)F)ccn6)[nH]c5c4)[nH]c3c2)CC1 [Example 48, 2-(5′-(5″-(4′″-methylpiperazin-1′″-yl)benzimidazol-2″-yl)benzimidazol-2′-yl)-4-(trifluoromethyl)pyridine]	203 to 208 °C	2.58	2.75	63.8	23.3
CN1CCN(c2ccc3nc(-c4ccc5nc(-c6ccc(C(F)(F)F)cn6)[nH]c5c4)[nH]c3c2)CC1 [Example 49, 2-(5′-(5″-(4′″-methylpiperazin-1′″-yl)benzimidazol-2″-yl)benzimidazol-2′-yl)-5-(trifluoromethyl)pyridine]	320 °C (dec.)	2.21	2.38	33.1	12.2
CN1CCN(c2ccc3nc(-c4ccc5cc(-c6ccccn6)[nH]c5c4)[nH]c3c2)CC1 [Example 31, 2-(6′-(5″-(4′″-Methylpiperazin-1′″-yl)benzimidazol-2″-yl)indol-2′-yl)pyridine]	245 to 247 °C	2.09	2.20	22.8	19.8
COc1cc(-c2nc3cc(N4CCN(C)CC4)ccc3[nH]2)cc2nc(-c3ccccn3)[nH]c12 [Example 30, 2-(4′-Methoxy-6′-(5″-(4′″-methylpiperazin-1′″-yl)benzimidazol-2″-yl)benzimidazol-2′-yl)pyridine]	200 °C (dec.)	1.78	1.97	13.3	158
COCCN(C)c1ccc2[nH]c(-c3ccc4[nH]c(-c5ccccn5)nc4c3)nc2c1 [Example 38, 2-(5′-(5″-((2′″-Methoxyethyl)(methyl)amino)benzimidazol-2″-yl)benzimidazol-2′-yl)pyridine]	150 to 155 °C	1.32	1.55	8.8	41.2
CN1CCN(c2ccc3nc(-c4ccc5nc(-c6n[nH]c7ccccc67)[nH]c5c4)[nH]c3c2)CC1 [Example 16, 3-(5′-(5″-(4′″-Methylpiperazin-1′″-yl)benzimidazol-2″-yl)benzimidazol-2′-yl)indazole]	235 °C (dec.)	1.78	2.16	18.3	40.9
CN1CCN(c2ccc3nc(-c4ccc5nc(-c6ncccc6C(F)(F)F)[nH]c5c4)[nH]c3c2)CC1 [Example 4, 2-(5′-(5″-(4′″-Methylpiperazin-1′″-yl)benzimidazol-2″-yl)benzimidazol-2′-yl)-3-trifluoromethylpyridine]	189 to 191 °C	1.41	1.99	30.5	190
CN1CCN(c2ccc3nc(-c4ccc5nc(-c6ncccc6F)[nH]c5c4)[nH]c3c2)CC1 [Example 3, 3-Fluoro-2-(5′-(5″-(4′″-methylpiperazin-1′″-yl)benzimidazol-2″-yl)benzimidazol-2′-yl)pyridine]	201 to 214 °C	1.40	1.80	15.3	93.1
CNc1ccnc(-c2nc3ccc(-c4nc5ccc(N6CCN(C)CC6)cc5[nH]4)cc3[nH]2)c1 [Example 9, 4-Methylamino-2-(5′-(5″-(4′″-methylpiperazin-1′″-yl)benzimidazol-2″-yl)benzimidazol-2′-yl)pyridine]	220 °C (dec.)	1.14	1.55	7.1	59.9
Cc1ccnc(-c2nc3ccc(-c4nc5ccc(N6CCN(C)CC6)cc5[nH]4)cc3[nH]2)c1 [Example 7, 4-Methyl-2-(5′-(5″-(4′″-methylpiperazin-1′″-yl)benzimidazol-2″-yl)benzimidazol-2′-yl)pyridine]	200 °C (dec.)	2.36	2.55	183.8	130
CN(C)C1CCN(c2ccc3nc(-c4ccc5nc(-c6ccccn6)[nH]c5c4)[nH]c3c2)CC1 [Example 29, 2-(5′-(5″-(4′″-(Dimethylamino)piperidin-1′″-yl)benzimidazol-2″-yl)benzimidazol-2′-yl)pyridine]	198 to 205 °C	1.54	1.76	18.2	46.9
OC1CCCN(c2ccc3nc(-c4ccc5nc(-c6ccccn6)[nH]c5c4)[nH]c3c2)C1 (stereo not drawn) [Example 26, 2-(5′-(5″-(3′″-Hydroxypiperidin-1′″-yl)benzimidazol-2″-yl)benzimidazol-2′-yl)pyridine]	278 to 282 °C	1.33	1.90	14.7	77.9
COCCOCCNc1ccc2nc(-c3ccc4nc(-c5ccccn5)[nH]c4c3)[nH]c2c1 [Example 39, 2-(5′-(5″-(2′″-(2″″-methoxyethoxy)ethylamino)benzimidazol-2″-yl)benzimidazol-2′-yl)pyridine]	183 to 186 °C	1.50	2.70	171.5	173
CN(C)c1ccc2nc(-c3ccc4nc(-c5ccccn5)[nH]c4c3)[nH]c2c1 [Example 28, 2-(5′-(5″-(Dimethylamino)benzimidazol-2″-yl)benzimidazol-2′-yl)pyridine]	180 °C (dec.)	1.30	1.57	13.5	60.8
COc1ccnc(-c2nc3ccc(-c4nc5ccc(N6CCN(C)CC6)cc5[nH]4)cc3[nH]2)c1 [Example 11, 4-Methoxy-2-(5′-(5″-(4′″-methylpiperazin-1′″-yl)benzimidazol-2″-yl)benzimidazol-2′-yl)pyridine]	190 °C (dec.)	1.95	2.28	51.4	53.6
